Experimental data: US10662222B2, “Drug delivery enhancement agents” (The University of Bath, priority 2014, dated 2020)
Read-outs that look alike come from different tables or passages of the source.

How the values were obtained:
[1] = tested on: Caco-2 cell monolayers; test: Trans-epithelial electrical resistance (TEER) of Caco-2 monolayers after apical peptide application; format: cell-based, human; conditions: for Efficacy at 5 mM (TEER reduction): apical application to Caco-2 cell monolayers
Description: An immortalized human intestinal epithelial cell line (Caco-2) were maintained in DMEM/F12 medium (Gibco, Paisley, UK) supplemented with 10% FBS, 2 mM L-glutamine (Gibco) 100 U/ml penicillin and 100 μg/ml streptomycin (Gibco). Caco-2 cells were seeded at a density of 7×10^4/well on Transwell™ (Corning, N.Y.) polyester membrane filters (12 mm diameter, 0.4 μm pore size). Re-feeding with DMEM (Life Technologies, Paisley, UK) was carried out every second day. Caco-2 monolayers with trans-epithelial electrical resistance (TEER)>350 Ω·cm2 were considered confluent and used in transport assays; fixed paddle electrodes were used to measure TEER (World Precision Instruments, UK).
(§1) Apical to basal flux of 50 mg/ml 4 kDa dextran or 50 mg/ml 70 kDa dextran (Sigma) was performed to assess the impact of PIP peptides on paracellular permeability. Apical compartment volume was 200 μl; at set times the 600 μl basal compartment volume was collected and replaced with fresh HBSS. Apical and basal compartment fluorescence was determined using a Floustar Omega microplate reader (BMG Labtech, Ortenburg, Germany). TEER measurements were made for each well immediately after HBSS replacement. After 3 hr, the apical compartment dextran and peptide solution was removed and replaced with PBS and TEER values were recorded for a further 30 min to assess monolayer recovery.
(§2) TEER values were calculated by subtracting blank filter reading and normalized as a percentage of the initial TEER value for that monolayer. Fluorescent dextran flux used to calculate paracellular permeability was performed as previously described. Blood glucose levels were expressed as a percentage of the baseline glucose levels for each animal. Data were compared to control values using a two-tailed, un-paired Student's T-test.
Peptides were applied apically at a concentration of 5 mM to confluent monolayers of Caco-2 cells grown on semi-permeable inserts (Rubus et al. (1996) J. Pharma. Sci 85:165-169) to assess their ability to affect TJ function (Peterson & Mooseker (1992) J. Cell. Sci. 102(3):581-600). RRVEVKYDRR (peptide #6; peptide 640, SEQ ID NO: 3) reduced the trans-epithelial electrical resistance (TEER) of Caco-2 monolayers with a drop of 50% within 25 min of addition (FIG. 4), and none of the peptides were toxic at this concentration according to MTT assay (Mosman (1983) J. Immunol. Methods 65:55-63). Critically, following gentle washing, RRVEVKYDRR (SEQ ID NO: 3)-treated Caco-2 monolayers TEER values recovered to 80% of their original values within 24 h. A lead candidate, peptide NH2-rrdykvevrr-NH2, (SEQ ID NO: 20) was identified based on the RRVEVKYDRR (SEQ ID NO: 3) sequence but using the retro-inverso configuration with D-configuration amino acids.

[2] = Blood glucose after SC or intraluminal intestinal (ILI) injection of insulin with PIP peptides; format: in vivo, rat
Description: Male Wistar rats, bred in house, were 225-275 g (approximately 6-8 weeks old) when placed on study. Rats were housed in groups of 3-5 per cage in a 12/12 hr light/dark cycle. All experiments were conducted during the light phase and carried out using a non-recovery protocol that used continuous isoflurane anesthesia. A 4-5 cm midline abdominal incision was made to expose mid-jejunum to early ileum regions of the small intestine and to provide access to the portal vein for the insertion of a cannula. Solutions of insulin (human recombinant; Sigma) and PIP peptides were prepared in 0.9% saline containing 10 mM citric acid to reduce local proteolysis and mixed 1:1 before injection using a 29-gauge hypodermic needle in a volume of 200 μL/kg (or ˜50 μL, per 250 g rat). The injection site was marked with a permanent marker. The incision was closed with surgical glue. Blood draws were taken from the portal vein as well as systemic circulation over the next two hours to monitor glucose, serum insulin and endotoxin. Control treatment groups included SC injection of insulin […] as well as intestinal injection of PIP peptide without insulin or insulin alone in the phosphate buffered saline (PBS) formulation used for all groups. At the end of a study, a 3-5 mm region about the marked intestine segment was isolated. This tissue was lysed for biochemical assessment of MLC phosphorylation state or fixed, sectioned, and stained with hematoxylin/eosin prior to analysis read by a licensed veterinary pathologist. Subcutaneous (SC) insulin injections (20 μl/kg) were performed in the mid-scapular region and blood glucose was measured in the same manner. All experiments were performed in accordance with the U.K. Animals (Scientific Procedures) Act of 1986, the European Communities Council Directive of 1986 (86/609/EEC), and the University of Bath's ethical review procedures.
as §2

[3] = tested on: Caco-2 cell monolayers; test: Trans-epithelial electrical resistance (TEER) of Caco-2 monolayers after apical peptide application; format: cell-based, human; conditions: FIG. 6; for TEER after peptide removal: fresh media to apical compartment after 180 min exposure
[4] = tested on: Caco-2 monolayers; test: Apical to basal flux of fluorescent dextran (4 kDa, 70 kDa) across Caco-2 monolayers; format: cell-based, human; conditions: for transport of paracellular marker 4 kDa fluorescent dextran (4FD): relative to control peptide, FIG. 5
Description: as §1, §2

[5] = tested on: myosin light chain (MLC) phosphorylated at Ser19; test: PhosphoMLC analysis (Western blot) of intestinal tissue after ILI injection; format: in vivo, rat; conditions: 20 mM peptide
Description: After rinsing with ice cold PBS, Caco-2 monolayers or epithelial cells from isolated intestinal tissue were lysed in 3 μL of a protease inhibitor cocktail and 200 μL RIPA buffer and left on ice for 10 min. Isolated intestinal tissue was similarly placed in ice cold PBS for 15 min prior to maceration in a protease inhibitor cocktail and RIPA buffer, being left on ice for 10 min. All cell and tissues lysates were centrifuged at 8000 rpm for 15 min to collect the supernatant, which was stored at −80° C. until use. For Western blots analysis, lysates were separated by SDS-PAGE (12%) run at 220V for 40 min and electro-transferred onto a PDVF membrane at 30V for 70 min using an XCell™ Blot module (Invitrogen). Membranes were blocked using 5% bovine serum albumin in TBS-T (2 M Tris, HCl, pH 7.5, 4 M NaCl and 0.1% Tween 20) for 1 hr. Membranes were washed with water, incubated with primary antibody (anti-myosin light chain (phospho S20) antibody or anti-myosin light chain 2) antibody overnight at 5° C., washed thrice with TBS-T, and then incubated with secondary horseradish […] (HRP)-coupled antibody for 1 hr at room temperature. After washing thrice in TBS-T, HRP activity was detected by ECL (Santa Cruz).
After rinsing with ice cold PBS to remove PIP peptide or control treatment agents, isolated intestinal tissue was placed in ice cold PBS for 15 min prior to addition of 25 μl protease inhibitor cocktail (Fisher), 25 μl phosphatase inhibitor cocktail (Fisher) and 500 μl RIPA buffer (Sigma Aldrich). After 10 min on ice lysates were centrifuged at 8000 rpm for 15 min to collect the supernatant, which was stored at −80° C. until use. For Western blots analysis, lysates were separated by SDS-PAGE (12%) run at 220V for 40 min and electro-transferred onto a PDVF membrane at 30V for 70 min using an XCell™ Blot module (Invitrogen). Membranes were blocked using 5% bovine serum albumin in TBS-T (2 M Tris HCl, pH 7.5, 4 M NaCl and 0.1% Tween 20) for 1 h. Membranes were washed with water, incubated with primary antibody (anti-myosin light chain (phospho S19) antibody (Cell Signalling Technologies) or anti-myosin light chain 2 antibody (Abcam) overnight at 5° C., washed thrice with TBS-T, and then incubated with secondary horseradish […] (HRP)-coupled antibody for 1 h at room temperature. After washing thrice in TBS-T, HRP activity was detected by ECL (Santa Cruz).

[6] = tested on: Caco-2 cells
Description: (§3) MTT assay: Cell viability was assessed using the 3-(4,5-dimethylthiazol-2-yl)-2,5-diphenyl tetrazolium bromide (MTT; Invitrogen, Paisley, UK) assay. Following exposure of cells to CPP complexes for 72 hours, 0.5 mg/ml MTT was added to the culture medium and incubated with the cells for a further 3 hours. Media was then removed and replaced with DMSO to lyse the cells. Absorbance was then recorded at 550 nm.

[7] = tested on: Caco-2 cells; test: Cell viability / cytotoxicity, MTT assay
Description: as §3

With “NH2-RRK TVKYDRR-NH2 (H-RRKTVKYDRR-NH2) [compound 5]” the “Efficacy at 5 mM (TEER reduction)” value ([1]; 5 mM) was “No”.
In the case of insulin, the “decrease in blood glucose” value ([2]; SC injection of 3 IU/kg insulin) is reported as about 50%, the “time at which blood glucose began to recover” value ([2]; SC injection of insulin) is reported as about 90 min and the “time of blood glucose nadir” value ([2]; SC injection of insulin) is reported as about 30 min. For the same substance, the “effect on blood sugar” value ([2]; intraluminal injection of 30 IU/kg insulin alone) was “no effect”.
For “NH2-RRVpTVKYDRR-NH2 (RRVTVKYDRR; HELM PEPTIDE1{R.R.V.[C[C@@H](OP(=O)(O)O)[C@H](N[*:1])C(=O)[*:2]].V.K.Y.D.R.R.[am]}$$$$V2.0; SMILES CC(C)[C@H](NC(=O)[C@H](CCCNC(=N)N)NC(=O)[C@@H](N)CCCNC(=N)N)C(=O)N[C@H](C(=O)N[C@H](C(=O)N[C@@H](CCCCN)C(=O)N[C@@H](Cc1ccc(O)cc1)C(=O)N[C@@H](CC(=O)O)C(=O)N[C@@H](CCCNC(=N)N)C(=O)N[C@@H](CCCNC(=N)N)C(N)=O)C(C)C)[C@@H](C)OP(=O)(O)O) [peptide 2]”, the “Efficacy at 5 mM (TEER reduction)” value ([1]; 5 mM) was “No”.
For NH2-RRV EVKYDRR-NH2 [peptide 640], the “TEER after peptide removal” value [3] was “rapid reversal of TEER depression”, the “blood glucose change profile” value ([2]; ILI of 30 IU/kg insulin plus 10 mM peptide) was “much delayed decrease” and the “permeability of 4 kDa dextran” value ([4]; 5 mM) was “failed to affect”. The “transport of paracellular marker 4 kDa fluorescent dextran (4FD)” value ([4]; 5 mM) was “increased transport of a paracellular marker relative to the control”, the “increase of rate of 4 kDa dextran permeation” value ([4]; 10 mM apical) was about 3 fold and the “flux of 70 kDa dextran” value ([4]; concentration not given) was “failed to affect”. The “drop of TEER” value ([1]; 5 mM apical, within 25 min of addition) was 50%, the “Efficacy at 5 mM (TEER reduction)” value ([1]; 5 mM) was “Yes” and the “TEER decrease to % of its initial value” ([1]; 5 mM, FIG. 5) was about 50%. For the same substance, the “loss in TEER” value ([1]; 5 mM, after 180 min of exposure) was about 50%, the “TEER recovery, % of original values” ([1]; after gentle washing, within 24 h) was 80% and the “MLC phosphorylation ratio (MLC to pMLC)” value ([5]; 15 min) was “significantly increased”. The “MLC phosphorylation ratio (MLC to pMLC)” value ([5]; 45 min) was “remained elevated”, the “MLC phosphorylation ratio (MLC to pMLC)” value ([5]; 90 min) was “returning to initial levels” and the “cell viability (mitochondrial membrane polarity marker MTS)” value [6] was “did not affect cell viability”.
With “NH2-RRV TVKYKRR-NH2 (H-RRVTVKYKRR-NH2) [compound 3]” the “Efficacy at 5 mM (TEER reduction)” value ([1]; 5 mM) was “No”.
For “NH2-RRV TVKYDRR-NH2 (H-RRVTVKYDRR-NH2) [peptide 1]”, the “Efficacy at 5 mM (TEER reduction)” value ([1]; 5 mM) was “No”.
With “NH2-RRVpTVKYKRR-NH2 (RRVTVKYKRR; HELM PEPTIDE1{R.R.V.[C[C@@H](OP(=O)(O)O)[C@H](N[*:1])C(=O)[*:2]].V.K.Y.K.R.R.[am]}$$$$V2.0; SMILES CC(C)[C@H](NC(=O)[C@H](CCCNC(=N)N)NC(=O)[C@@H](N)CCCNC(=N)N)C(=O)N[C@H](C(=O)N[C@H](C(=O)N[C@@H](CCCCN)C(=O)N[C@@H](Cc1ccc(O)cc1)C(=O)N[C@@H](CCCCN)C(=O)N[C@@H](CCCNC(=N)N)C(=O)N[C@@H](CCCNC(=N)N)C(N)=O)C(C)C)[C@@H](C)OP(=O)(O)O) [compound 4]” the “Efficacy at 5 mM (TEER reduction)” value ([1]; 5 mM) was “No”.
For “RKAKYQYRRK (drug delivery enhancement peptide) [peptide 250]”, the TEER response ([3]; 20 mM peptide 250 versus 10 mM peptide 640) was “very comparable response to 10 mM peptide 640”, the “TEER after peptide removal” value [3] was “rapid reversal of TEER depression” and the “cell viability (mitochondrial membrane polarity marker MTS)” value ([7]; concentrations that modulated TEER and paracellular permeability) was “did not affect cell viability”. For the same substance, the “cytotoxicity using the MTT assay” value ([7]; data not shown) was “lack of cytotoxicity”, the blood sugar recovery ([2]; ILI of 30 IU/kg insulin plus 10 mM peptide, by 90 min) was 70-80% and the “drop in blood glucose” value ([2]; ILI of 30 IU/kg insulin plus 20 mM peptide, by 30 min, remained for the remainder of the experiment) was 40%. For the same substance, the “transport of paracellular marker 4 kDa fluorescent dextran (4FD)” value ([4]; 5 mM) was “increased transport of a paracellular marker relative to the control”, the “4 kDa dextran flux rates, comparison” value ([4]; 10 mM) was 10 mM peptide 640 was equal to 10 mM peptide 250 and the “4 kDa dextran flux rate compared to control” value ([4]; 20 mM) was about 6 fold. The “increase of 70 kDa dextran flux” value ([4]; 20 mM) was about 3 fold, the “TEER change compared with peptide 640” value ([1]; 5 mM, FIG. 5) was “slower and less pronounced drop in TEER” and the “MLC phosphorylation ratio (MLC to pMLC)” value ([5]; 15 min) was “no significant changes”. For the same substance, the “MLC phosphorylation ratio (MLC to pMLC)” value ([5]; 45 min) was “elevated” and the “MLC phosphorylation ratio (MLC to pMLC)” value ([5]; 90 min) was “returning to basal levels”.
